Patent publication US20250299772A1, “METHOD FOR GENERATION OF CHEMICAL DERIVATIVES AGAINST TARGET PROTEIN TO BUILD AI DRUG PLATFORM” (SYNTEKABIO, INC., priority 2024, published 2025)
Values belong to the compound of their own block, whether it stands above or below them.

Target: protein A (a kinase)
Test: Inhibition of protein A kinase activity (33P-ATP peptide phosphorylation, filter, scintillation counting)
Type: biochemical
Conditions: for IC50: Table 2, 10 μM [gamma-33P]-ATP, 10 μM peptide substrate, 40 minutes at room temperature; for pIC50 (experimental): Table 3, given with negative sign
Procedure: The hit compound derivatives synthesized as real compounds through Example 3 were evaluated for ability to inhibit the activity of protein A (a kinase).
Specifically, […] of protein A was incubated along with 8 mM MOPS (pH 7.0), 0.2 mM EDTA, 10 mM magnesium acetate, 10 μM [gamma-33P]-ATP, and 10 μM […], which is a phosphorylation target peptide. After incubation at room temperature for 40 minutes, the reaction was terminated by adding phosphoric acid to a final concentration of 0.5%. The reaction mixture was spotted onto a filter, then washed four times with 0.425% phosphoric acid for 4 minutes each. After washing once with methanol, the sample was dried and measured for radioactivity (scintillation counting) to assess phosphorylation (i.e., […](p)EDEEE peptide detection).

SMILES: C#CC(=O)Nc1cccc(-c2cc(NC(=O)c3cc4ncc(O)nc4s3)[nH]n2)c1 [Compound D0137]
IC50: 40 nM
pIC50 (experimental): 7.4

SMILES: CC(C)(C)C(=O)Nc1cccc(-c2cc(NC(=O)c3nc4cccnc4s3)[nH]n2)c1 [Compound D0065]
IC50: 119 nM
pIC50 (experimental): 6.92

SMILES: CC#CC(=O)Nc1cccc(-c2cc(NC(=O)c3cc4cc(OC)ccc4o3)[nH]n2)c1 [Compound D0069]
IC50: 30 nM
pIC50 (experimental): 7.52

SMILES: C#CC(=O)Nc1cccc(-c2cc(NC(=O)c3cc4nccnc4s3)[nH]n2)c1 [Compound D0101]
IC50: 13 nM
pIC50 (experimental): 7.89

SMILES: C#CC(=O)Nc1cccc(-c2cc(NC(=O)c3cc4c(s3)CCOC4)[nH]n2)c1 [Compound D0157]
IC50: 4 nM
pIC50 (experimental): 8.4

SMILES: C#CC(=O)Nc1cccc(-c2cc(NC(=O)c3ccc4nonc4c3)[nH]n2)c1 [Compound D0054]
IC50: 26 nM
pIC50 (experimental): 7.58

SMILES: O=C(Nc1cc(-c2cccc(NS(=O)(=O)N3CCOCC3)c2)n[nH]1)c1cccc2ncsc12 [Compound D0083]
IC50: 129 nM
pIC50 (experimental): 6.89

SMILES: O=C(Nc1cc(-c2cccc(NS(=O)(=O)N3CCOCC3)c2)n[nH]1)c1cc2nccnc2s1 [Compound D0025]
IC50: 62 nM
pIC50 (experimental): 7.21

SMILES: C#CC(=O)Nc1cccc(-c2cc(NC(=O)c3cc4ccc(O)cc4o3)[nH]n2)c1 [Compound D0139]
IC50: 22 nM
pIC50 (experimental): 7.66

SMILES: C#CC(=O)Nc1cccc(-c2cc(NC(=O)c3cc4ccc(O)cc4o3)[nH]n2)c1 [Compound D0135]
IC50: 63 nM
pIC50 (experimental): 7.2

The next lines start with the values.

IC50: 10 nM
pIC50 (experimental): 8
SMILES: C#CC(=O)Nc1cccc(-c2cc(NC(=O)c3cc4ncc(C(N)=O)nc4s3)[nH]n2)c1 [DM010]

IC50: 7 nM
pIC50 (experimental): 8.15
SMILES: C#CC(=O)Nc1cccc(-c2cc(NC(=O)c3cc4ncc(C(=O)O)nc4s3)[nH]n2)c1 [DM009]

IC50: 31 nM
pIC50 (experimental): 7.51
SMILES: CC#CC(=O)Nc1cccc(-c2cc(NC(=O)c3cc4c(s3)CCNC4)[nH]n2)c1 [Compound D1010]

IC50: 19 nM
pIC50 (experimental): 7.72
SMILES: CC#CC(=O)Nc1cccc(-c2cc(NC(=O)c3cc4c(s3)CCOC4)[nH]n2)c1 [Compound D1008]

IC50: 8 nM
pIC50 (experimental): 8.1
SMILES: CC#CC(=O)Nc1cccc(-c2cc(NC(=O)c3cc4c(s3)CC(=O)NC4)[nH]n2)c1 [Compound D1011]
